# Reference: patent US20200352906A1, “Heterobicyclic Carboxylic Acids for Treating Cancer or Inflammatory Diseases” (Shenzhen Ionova Life Science Co., Ltd., priority 2018, published 2020)
# What was measured:
# [1] = test system: arthritis mice (AIA model); assay: In vivo anti-inflammatory activity, AIA arthritis model
# Experimental: Male Lewis Rates of 8-10 weeks old were fed with fixed amount of foods and free water at 20±2° C., under light in the 12-hour light and 12-hour darkness cycle and with the humidity of 45-70%. All mice were provided adjusted living for three days before they were used in test. 56 of such mice were divided into 7 groups with 8 mice in each group. One group was a control group and received only 1% CMCNa solution; one group was a model group and also received only 1% CMCNa solution; one group was a positive group and received Celecoxib at 18 mg/kg, and the other four groups received solutions of tested compound at the 1 mg/kg, 3 mg/kg, 10 mg/kg and […] dosages respectively.
# 1% CMC-Na was prepared with 1.00277 g of CMC-Na in 100 mL distilled water, heated with a 60° C. water bath until CMC-Na fully dissolved.
# 18 mg/kg Celecoxib capsule: 18.09 mg Celecoxib was placed into a grinder into which 10 mL 1% CMC-Na solution was added slowly. The mixture was ground until Celecoxib fully dissolved.
# 10 mg/kg C-003 solution: 10.08 mg of a tested compound (4-(1-{[2-Methyl-4-(4-trifluoromethyl-benzyl)-4H-thieno[3,2-b]pyrrole-3-carbonyl]-amino}-cyclopropyl)-benzoic acid diethanolamino salt, which is referred to hereinafter as INV-1120 diethanolamino salt) was added into a grinder, into which 10 mL 1% CMC-Na solution was slowly added until INV-1120 diethanolamino salt fully dissolved.
# 30 mg/kg INV-1120 solution: 30.3 mg of INV-1120 diethanolamino salt was added into a grinder, into which 10 mL 1% CMC-Na solution was slowly added until INV-1120 diethanolamino salt fully dissolved.
# 1 mg/kg INV-1120 was prepared by mixing 1.0 mL of 10 mg/kg INV-1120 diethanolamino salt solution with 9 mL 1% CMC-Na.
# 3 mg/kg INV-1120 was prepared by mixing 1.0 mL of 30 mg/kg INV-1120 diethanolamino salt solution with 9 mL 1% CMC-Na.
# After the mice were subject to Anesthesia, they were cleaned with medical alcohol at their right feet. The mice in the control group were administered with 50 uL PBS, and the mice of the other groups were treated at the right feet with 50 uL CDA solution. One day before the establishment of the model, the basic size (volume) of each mice was measured, the date of the model establishment was D1, test compound was administered at 1 mL/100 g to the stomach starting on D13 daily for 12 days (ending on D24).
# The mice were examined and photos were taken every three days for their water intakes, food intakes, and weights; every four days for their abilities to withstand weight at their rear feet; every three days for the swelling volumes and swelling thickness and temperatures of their feet, as well as their behaviors.
# [2] = test system: MC38 murine colon adenocarcinoma; assay: In vivo pharmacodynamic test on subcutaneous murine colon adenocarcinoma (MC38); set-up: species or system mice; settings: 60 mg/kg/day, after 15 days of treatment, p<0.0001 vs control
# Experimental: All animal studies were reviewed and approved by the Animal Care and Use Committee of Beth Israel Deaconess Medical Center, Boston, Mass. Animals were housed at a maximum of 5 animals per cage in a pathogen-free facility with unlimited access to sterile water and chow. Daily welfare evaluations and animal sacrifices were carried out according to the Committee guidelines. MC38 mouse colon adenocarcinoma cells (Kerafast, Boston, Mass., USA) were cultured in DMEM that was supplemented with 10% FBS, 1% GPS, 0.1 mM nonessential amino acids (MilliporeSigma), 1 mM sodium pyruvate (MilliporeSigma), 10 mM Hepes (MilliporeSigma), and […] gentamycin sulfate (MilliporeSigma). Adherent cells were trypsinized, pelleted, counted by hemocytometer, and injected into mice at 1×10^6 cells/mL in PBS.
# (§1) Cells were injected subcutaneously into the mid-dorsum of 6-week-old male C57BL/6 mice (The Jackson Laboratory, Bar Harbor, Me.) at 100 μL/mouse. Mice were systemically treated with Compound 1 (INV-1120, 60 mg/kg/day), anti-PD1 (200 ug Q 3 days), INV-1120 (60 mg/kg/day) and anti-PD1 (200 ug Q 3 days), or vehicle (0.45% methylcellulose) in a total volume of 100 μL via orally by gavage. Treatment initiated on day 10 post-tumor cell injection, when tumors reached approximately 2004 mm^3 to 224 mm^3. Tumor size was measured by caliper (width^2×length×0.52=mm^3).
# B16F10 melanoma = assay: In vivo pharmacodynamic test on growth of B16F10 melanoma; set-up: species or system mice; settings: 90 mg/kg/day, after 8 days of treatment, p<0.001 vs control
# Experimental: as §1, with “B16F10 (1×10^6 cells)” for “Cells”, “90” for “60”, “(90” for “(60”, “100” for “2004”, “116” for “224”
# Lewis lung carcinoma = assay: In vivo pharmacodynamic test on growth of LLC (Lewis Lung Cancer); set-up: species or system mice; settings: 90 mg/kg/day, after 9 days of treatment, p<0.01 vs control
# Experimental: as §1, with “LLC (1×10^6 cells)” for “Cells”, “INV-1120 (90” for “Compound 1 (INV-1120, 60”, “(90” for “(60”, “initiated” for “initiated on day 10 post-tumor cell injection,”, “249” for “2004”, “297” for “224”
# [3] = test system: colon cancer CT26 transplanted tumor; assay: In vivo pharmacodynamic test on growth of colon cancer CT26 transplanted tumor in mice
# Experimental: CT26 tumor cell line was maintained in vitro as monolayer culture in RPMI-1640 Media supplemented with 10% heat inactivated fetal calf serum at 37° C. in an atmosphere of 5% CO2 in air. The tumor cells were routinely sub-cultured twice weekly by trypsin-EDTA treatment, not to exceed 4-5 passages. The cells growing in an exponential growth phase were harvested and counted for tumor inoculation.
# Each mouse was inoculated subcutaneously on the right lower flank with the single cell suspension of 95% viable tumor cells (3×10^5) in 0.1 mL of serum-free RPMI 1640 Media for tumor development. Each mouse was administered with a test compound of this invention when mean tumor size reached approximately 100 mm^3. Each group consisted of 6 mice. The mice were randomized to different treatment groups as shown in the table under ‘Groups and Treatment’. The mice were lightly anesthetized before implantation. Care was taken to ensure subcutaneous delivery of cells by lifting up the fold of skin with sterilized forceps and injecting cells. Any tumors that completely or partially grew intradermally (ID) or intramuscularly (IM) were not used.
# CT26 cells were maintained in RPMI 1640 medium supplemented with 10% FBS at 37° C. and 5% CO2 atmosphere. Cell detachment was obtained using standard trypsinization methods, quantification of cell numbers and viability information using the NC-200 automated cell counter. Compound 1 (INV-1121) was thoroughly suspended in 0.5% methyl cellulose (MC) by sonication at 4° C. for 15 min before oral administration (p.o.) to animals. BALB/c mice were injected subcutaneously (s.c.) with live 1×10^5 […]. Mice developed tumors of approximately 36 mm^3 in 5 days. CT26 tumor-bearing mice were randomized and mapped into 5 groups of 10 mice each: group A received vehicle (0.5% MC); group B received 0.1 mg/kg of Compound 1; group C received 1 mg/kg of Compound 1, group D received 25 mg/kg of Compound 1; and group E received 150 mg/kg of Compound 1. All treatments were give Compound 1 p.o. daily for 21 consecutive days. Tumor volumes and body weights were measured twice weekly. Study was terminated 27 days after tumor cell injection. Tumor volumes were expressed as mean: t SEM. Tumor volume differences among treated mouse groups on day 27 were analyzed by the one-way ANOVA followed by Tukey's test. P<0.05 values were considered significant.
# For routine monitoring, all study animals were monitored not only tumor growth but also behavior such as mobility, food and water consumption (by cage side checking only), body weight (BW), eye/hair matting and any other abnormal effect. All mortality and/or abnormal clinical signs were recorded.
# Body weights of all animals are measured twice/week throughout the study. The measurement dates will specify as study design. Body weight change, expressed in %, was calculated using the following formula:
# BW change (%)=((BWDay X−BWDay 0)/BWDay 0)×100
# The measurement of tumor size was conducted twice/week with a caliper and the tumor volume (mm3) will be estimated using the formula: TV=a×b 2/2, where “a” and “b” is long and short diameters of a tumor, respectively. The TVs were used for calculation of the tumor growth inhibition (TGI, an indicator of antitumor effectiveness) value using the formula: TGI=(1−T/C)×100%, where “T” and “C” is the mean relative volumes (% tumor growth) of the tumors in the treated and the control groups, respectively. The experiment was terminated when the mean tumor volume exceeded 2000 mm3 or severe body weight loss.
# [4] = Example 6, studies as described in Example 5, compared with Example 5
# [5] = vs animals without administration of tested compounds
compound,measurement,setting,value
"Cc1sc2ccn(Cc3ccc(C(F)(F)F)cc3)c2c1C(=O)NC1(c2ccc(C(=O)O)cc2)CC1.NC(CO)(CO)CO [4-(1-{[2-Methyl-4-(4-trifluoromethyl-benzyl)-4H-thieno[3,2-b]pyrrole-3-carbonyl]-amino}-cyclopropyl)-benzoic acid tris(hydroxymethyl)aminomethane salt]",balancing or coordination ability after treatment,[1]; [4],better balancing or coordination ability
same,reduction of swelling on the arthritis feet,[1]; [4],even more effective reduction of swelling
"Cc1sc2ccn(Cc3ccc(C(F)(F)F)cc3)c2c1C(=O)NC1(c2ccc(C(=O)O)cc2)CC1.OCCNCCO [INV-1120 diethanolamino salt, 4-(1-{[2-Methyl-4-(4-trifluoromethyl-benzyl)-4H-thieno[3,2-b]pyrrole-3-carbonyl]-amino}-cyclopropyl)-benzoic acid diethanolamino salt]",temperatures of the feet,"[1]; 1, 3, 10 and 40 mg/kg to the stomach daily D13-D24, FIG. 5",had effect in lowering the temperatures
same,swelling (volumes and thickness) of the feet,"[1]; 1, 3, 10 and 40 mg/kg to the stomach daily D13-D24, FIG. 6",had effect in lowering the temperatures and swelling (both volumes and thickness)
same,"behavior patterns (e.g., balancing capability)","[1]; mouse, in vivo",improved behavior patterns
same,ability to withstand weight (rear feet),[1]; [5],greater weight gains and ability to withstand weight
same,weight gains,[1]; [5],greater weight gains
"Cc1sc2ccn(Cc3ccc(C(F)(F)F)cc3)c2c1C(=O)NC1(c2ccc(C(=O)O)cc2)CC1 [INV-1120, 4-(1-{[2-Methyl-4-(4-trifluoromethyl-benzyl)-4H-thieno[3,2-b]pyrrole-3-carbonyl]-amino}-cyclopropyl)-benzoic acid]",inhibition of primary tumor growth vs control,[2],inhibited primary MC38 murine colon adenocarcinoma
same,inhibition of primary melanoma growth vs control,B16F10 melanoma,inhibited primary 16F10 melanoma growth
same,inhibition of primary Lewis lung carcinoma growth vs control,Lewis lung carcinoma,inhibited primary Lewis lung carcinoma growth
O=C(O)c1ccc(C2(NC(=O)c3csc4ccn(Cc5ccc(C(F)(F)F)cc5)c34)CC2)cc1 [INV-1121],tumor growth inhibition,[3]; 0.1 mg/kg p.o. daily,"some inhibition was observed, but without statistical significance"
same,tumor growth inhibition,[3]; 1.0 mg/kg p.o. daily,"some inhibition was observed, but without statistical significance"
same,anti-tumor activity,[3]; 25 mg/kg p.o. daily,significant and comparable anti-tumor activity
same,anti-tumor activity,[3]; 150 Mg/kg p.o. daily,significant and comparable anti-tumor activity
same,gross toxicity judged from animal body weight and overall animal behavior,"[3]; all doses tested, 0.1-150 mg/kg p.o. daily",None of the doses tested showed gross toxicity
same,"tumor growth inhibition, dose dependence","[3]; daily oral administration, range 0.1 mg/kg-150 mg/kg, 21 consecutive days, FIG. 1",inhibited the tumor growth in a dose-dependent manner
